In patent US20230082430A1 (C4 Therapeutics, Inc., priority 2019, published 2023):

Each compound was assayed on NCIH929.1 cells (assay: Cell viability assay for Table 2 (CellTiter-Glo 2.0, ATP quantification, 96 hr)). Conditions: 96 h, NCIH929.1 cell viability, 96 hr, top concentration 1 μM, 14 points half log titration; read-out: IC50.
Format: cell-based
From the text: Cell Viability Assay for Table 2
CellTiter-Glo® 2.0 Assay was purchased from Promega (Madison, Wis., USA). NCIH929.1 cell line was purchased from ATCC (Manassas, Va., USA). Cell culture flasks and 384-well microplates were acquired from VWR (Radnor, Pa., USA).

SMILES	IC50 [nM]
CC1(CN2CCC(n3cc(Cc4ccc5c6c(cccc46)C(=O)N5C4CCC(=O)NC4=O)cn3)CC2)CC1 (single isomer, unassigned) [Compound 234, 3-[6-[[1-[1-[(1-methylcyclopropyl)methyl]-4-piperidyl]pyrazol-4-yl]methyl]-2-oxo-benzo[cd]indol-1-yl]piperidine-2,6-dione]	< 1
CC1(CN2CCC(n3cc(Cc4ccc5c6c(cccc46)C(=O)N5C4CCC(=O)NC4=O)cn3)CC2)CCC1 (single isomer, unassigned) [Compound 236, 3-[6-[[1-[1-[(1-methylcyclobutyl)methyl]-4-piperidyl]pyrazol-4-yl]methyl]-2-oxo-benzo[cd]indol-1-yl]piperidine-2,6-dione]	< 1
CC1(n2cc(Cc3ccc4c5c(cccc35)C(=O)N4C3CCC(=O)NC3=O)cn2)CCN(C(=O)C23COC(C2)C3)CC1 (single isomer, unassigned) [Compound 238, 3-[6-[[1-[4-methyl-1-(2-oxabicyclo[2.1.1]hexane-4-carbonyl)-4-piperidyl]pyrazol-4-yl]methyl]-2-oxo-benzo[cd]indol-1-yl]piperidine-2,6-dione]	< 1
O=C1CCC(N2C(=O)c3cccc4c(Cc5cnn(C6CCN(C7CCC78CCC8)CC6)c5)ccc2c34)C(=O)N1 (single isomer, unassigned) [Compound 244, 3-{2-Oxo-6-[1-(1-spiro[3.3]hept-1-yl-piperidin-4-yl)-1H-pyrazol-4-ylmethyl]-2H-benzo[cd]indol-1-yl}-piperidine-2,6-dione]	< 1
O=C1CCC(N2C(=O)c3cccc4c(Cc5ccc(CN6CCN(c7ccc(Cl)cc7F)CC6)cc5)ccc2c34)C(=O)N1 (single isomer, unassigned) [Compound 254, 3-[6-[[4-[[4-(4-chloro-2-fluoro-phenyl)piperazin-1-yl]methyl]phenyl]methyl]-2-oxo-benzo[cd]indol-1-yl]-piperidine-2,6-dione]	< 1
O=C1CCC(N2C(=O)c3cccc4c(Cc5ccc(CN6CCN(c7ccc(F)cc7F)CC6)cc5)ccc2c34)C(=O)N1 (single isomer, unassigned) [Compound 256, 3-(6-(4-((4-(2,4-difluorophenyl)piperazin-1-yl)methyl)benzyl)-2-oxobenzo[cd]indol-1(2H)-yl)piperidine-2,6-dione]	< 1
CC1(CN2CCC(n3cc(Cc4ccc5c6c(cccc46)C(=O)N5C4CCC(=O)NC4=O)cn3)CC23CC3)CCC1 (single isomer, unassigned) [Compound 274, 3-[6-[[1-[4-[(1-methylcyclobutyl)methyl]-4-azaspiro[2.5]octan-7-yl]pyrazol-4-yl]methyl]-2-oxo-benzo[cd]indol-1-yl]piperidine-2,6-dione]	< 1
CC(C1CCC1)N1CCC(n2cc(Cc3ccc4c5c(cccc35)C(=O)N4C3CCC(=O)NC3=O)cn2)CC1 (single isomer, unassigned) [Compound 280, 3-[6-[[1-[1-[1-cyclobutylethyl]-4-piperidyl]pyrazol-4-yl]methyl]-2-oxo-benzo[cd]indol-1-yl]piperidine-2,6-dione]	< 1
CC(C1CC1)N1CCC(n2cc(Cc3ccc4c5c(cccc35)C(=O)N4C3CCC(=O)NC3=O)cn2)CC1 (single isomer, unassigned) [Compound 282, 3-(6-((1-(1-(1-cyclopropylethyl)piperidin-4-yl)-1H-pyrazol-4-yl)methyl)-2-oxobenzo[cd]indol-1(2H)-yl)piperidine-2,6-dione]	< 1
CC(c1ccc(Cc2ccc3c4c(cccc24)C(=O)N3C2CCC(=O)NC2=O)cc1)N1CCN(c2ccccc2F)CC1 (single isomer, unassigned) [Compound 284, 3-[6-[[4-[1-[4-(2-fluorophenyl)piperazin-1-yl]ethyl]phenyl]methyl]-2-oxo-benzo[cd]indol-1-yl]piperidine-2,6-dione]	< 1

Same assay, conditions: NCIH929.1 cell viability, 96 hr, top concentration 1 μM, 14 points half log titration; read-out: IC50

SMILES	IC50 [nM]
CC1(CN2CCC(n3cc(Cc4ccc5c6c(cccc46)C(=O)N5C4CCC(=O)NC4=O)cn3)CC2)CC1 (single isomer, unassigned) [Compound 235, 3-[6-[[1-[1-[(1-methylcyclopropyl)methyl]-4-piperidyl]pyrazol-4-yl]methyl]-2-oxo-benzo[cd]indol-1-yl]piperidine-2,6-dione]	< 1
CC1(CN2CCC(n3cc(Cc4ccc5c6c(cccc46)C(=O)N5C4CCC(=O)NC4=O)cn3)CC2)CCC1 (single isomer, unassigned) [Compound 237, 3-[6-[[1-[1-[(1-methylcyclobutyl)methyl]-4-piperidyl]pyrazol-4-yl]methyl]-2-oxo-benzo[cd]indol-1-yl]piperidine-2,6-dione]	< 1
CC1(n2cc(Cc3ccc4c5c(cccc35)C(=O)N4C3CCC(=O)NC3=O)cn2)CCN(C(=O)C23COC(C2)C3)CC1 (single isomer, unassigned) [Compound 239, 3-[6-[[1-[4-methyl-1-(2-oxabicyclo[2.1.1]hexane-4-carbonyl)-4-piperidyl]pyrazol-4-yl]methyl]-2-oxo-benzo[cd]indol-1-yl]piperidine-2,6-dione]	< 1
O=C1CCC(N2C(=O)c3cccc4c(Cc5cnn(C6CCN(C7CCC78CCC8)CC6)c5)ccc2c34)C(=O)N1 (single isomer, unassigned) [Compound 245, 3-{2-Oxo-6-[1-(1-spiro[3.3]hept-1-yl-piperidin-4-yl)-1H-pyrazol-4-ylmethyl]-2H-benzo[cd]indol-1-yl}-piperidine-2,6-dione]	< 1
O=C1CCC(N2C(=O)c3cccc4c(Cc5ccc(CN6CCN(c7ccc(Cl)cc7F)CC6)cc5)ccc2c34)C(=O)N1 (single isomer, unassigned) [Compound 255, 3-[6-[[4-[[4-(4-chloro-2-fluoro-phenyl)piperazin-1-yl]methyl]phenyl]methyl]-2-oxo-benzo[cd]indol-1-yl]piperidine-2,6-dione]	< 1
O=C1CCC(N2C(=O)c3cccc4c(Cc5ccc(CN6CCN(c7ccc(F)cc7F)CC6)cc5)ccc2c34)C(=O)N1 (single isomer, unassigned) [Compound 257, 3-(6-(4-((4-(2,4-difluorophenyl)piperazin-1-yl)methyl)benzyl)-2-oxobenzo[cd]indol-1(2H)-yl)piperidine-2,6-dione]	< 1
CC(C1CCC1)N1CCC(n2cc(Cc3ccc4c5c(cccc35)C(=O)N4C3CCC(=O)NC3=O)cn2)CC1 (single isomer, unassigned) [Compound 281, 3-[6-[[1-[1-[1-cyclobutylethyl]-4-piperidyl]pyrazol-4-yl]methyl]-2-oxo-benzo[cd]indol-1-yl]piperidine-2,6-dione]	< 1
CC(C1CC1)N1CCC(n2cc(Cc3ccc4c5c(cccc35)C(=O)N4C3CCC(=O)NC3=O)cn2)CC1 (single isomer, unassigned) [Compound 283, 3-(6-((1-(1-(1-cyclopropylethyl)piperidin-4-yl)-1H-pyrazol-4-yl)methyl)-2-oxobenzo[cd]indol-1(2H)-yl)piperidine-2,6-dione]	< 1
CC(c1ccc(Cc2ccc3c4c(cccc24)C(=O)N3C2CCC(=O)NC2=O)cc1)N1CCN(c2ccccc2F)CC1 (single isomer, unassigned) [Compound 285, 3-[6-[[4-[1-[4-(2-fluorophenyl)piperazin-1-yl]ethyl]phenyl]methyl]-2-oxo-benzo[cd]indol-1-yl]piperidine-2,6-dione]	< 1
